Results as given in paper PMC10210398, “Genomic, functional and structural analyses elucidate evolutionary innovation within the sea anemone 8 toxin family” (BMC Biology, 2023).

What was measured:
hKV10.1 = assay: Whole-cell patch-clamp, hKV10.1 in transiently transfected CHO cells; format: cell-based, human; conditions: 2 µM, KV10.1
Protocol: (§1) CHO and human embryonic kidney (HEK 293) cells were grown in DMEM-high glucose supplemented with 10% FBS, 2 mM L-glutamine, 100 U/mL penicillin-g, and 100 μg/mL streptomycin (Invitrogen) at 37 °C in a 5% CO2 and 95% air humidified atmosphere. Cells were passaged twice per week following a 5-min incubation in PBS containing 0.2 g/L EDTA (Invitrogen, Carlsbad, CA).
(§2) CHO cells (ATCC) were transiently transfected with plasmids encoding hKV1.1, hKV1.2, hKV10.1, hKCa3.1, hTRPA1, or hNaV1.7 using Lipofectamine 2000 (Invitrogen, Carlsbad, CA) following the manufacturer’s protocol, then cultured under standard conditions. The cells were co-transfected with a plasmid encoding green fluorescent protein (GFP) at a molar ratio of 10:1 except for hKV1.1, hKV1.2, and hKCa3.1 for which GFP-tagged ion channel vectors were used. Currents were recorded 24–36 h after transfection. […] HEK 293 cells stably expressing the hKv11.1 channel (hERG, hKCNH2 gene, a kind gift from H. Wulff, University of California, Davis, CA) and mKCa1.1 channel (BKCa, hKCNMA1, a kind gift from C. Beeton, Baylor College of Medicine, Houston, TX) were used. hTRPV1 channels were expressed in a stable manner in CHO cells. Transfected cells were washed twice with 2 mL of ECS (see below) and re-plated onto 35-mm polystyrene cell culture dishes (Cellstar, Greiner Bio-One). hKV1.3 currents were recorded from activated peripheral blood mononuclear cells (PBMCs, see below) 3–4 days after activation. Human veinous blood was obtained from anonymised healthy donors. […]
(§3) Conventional whole-cell patch-clamp electrophysiology was used to record ionic currents. […] Data were analysed using Prism 8 (GraphPad, CA, USA) and ClampFit 10.5 software (Molecular Devices Inc., Sunnyvale, CA). […] For hKCa3.1, hTRPA1 and hTRPV1, the reversal potential for K^+ was determined and only those currents were analysed for which the reversal potential fell into the range of the theoretical reversal potential ± 5 mV (− 86.5 ± 5 mV for KCa3.1, and 0 ± 5 mV for hTRPA1 and hTRPV1).

hKV1.2 = biological target: T1, hKV1.2 (Homo sapiens, UniProt P16389); assay: Whole-cell patch-clamp, hKV1.2 in transiently transfected CHO cells; format: cell-based; design: reduction in current amplitude, positive control: dose or concentration left out as unconfirmed; conditions: […] nM, KV1.2
T1 construct: GFP; expressed in transfected cells; host or cells: CHO cells (ATCC), transient transfection with Lipofectamine 2000
Protocol: as §1
(§4) CHO cells (ATCC) were transiently transfected with plasmids encoding hKV1.1, hKV1.2, hKV10.1, hKCa3.1, hTRPA1, or hNaV1.7 using Lipofectamine 2000 (Invitrogen, Carlsbad, CA) following the manufacturer’s protocol, then cultured under standard conditions. The cells were co-transfected with a plasmid encoding green fluorescent protein (GFP) at a molar ratio of 10:1 except for hKV1.1, hKV1.2, and hKCa3.1 for which GFP-tagged ion channel vectors were used. Currents were recorded 24–36 h after transfection. […] HEK 293 cells stably expressing the hKv11.1 channel (hERG, hKCNH2 gene, a kind gift from H. Wulff, University of California, Davis, CA) and mKCa1.1 channel (BKCa, hKCNMA1, a kind gift from C. Beeton, Baylor College of Medicine, Houston, TX) were used. hTRPV1 channels were expressed in a stable manner in CHO cells. Transfected cells were washed twice with 2 mL of ECS (see below) and re-plated onto 35-mm polystyrene cell culture dishes (Cellstar, Greiner Bio-One). hKV1.3 currents were recorded from activated peripheral blood mononuclear cells (PBMCs, see below) 3–4 days after activation. Human veinous blood was obtained from anonymised healthy donors. PBMCs were isolated using Histopaque1077 (Sigma-Aldrich Hungary, Budapest, Hungary) density gradient centrifugation. Cells obtained were resuspended in RPMI 1640 medium containing 10% foetal calf serum (Sigma-Aldrich Hungary, Budapest, Hungary), 100 μg/mL penicillin, 100 μg/mL streptomycin, and 2 mM L-glutamine, seeded in a 24-well culture plate at a density of 5–6 × 10^5 cells/mL, and grown in a 5% CO2 incubator at 37 °C for 3–5 days. Phytohemagglutinin A (PHA, Sigma-Aldrich Hungary, Budapest, Hungary) was added to the medium at 10 μg/mL to amplify the KV1.3 expression. Cells were washed gently twice with 2 mL of ECS for the patch-clamp experiments.
Conventional whole-cell patch-clamp electrophysiology was used to record ionic currents. Micropipettes were pulled in four stages using a Flaming Brown automatic pipette puller (Sutter Instruments, San Rafael, CA) from Borosilicate Standard Wall with Filament aluminium–silicate glass (Harvard Apparatus Co., Holliston, MA) with tip diameters between 0.5 and 1 μm and heat polished to a tip resistance of 2–8 MΩ. All measurements were carried out by using Axopatch 200B amplifier connected to a personal computer using Axon Digidata 1550A data acquisition hardware (Molecular Devices, Sunnyvale, CA). In general, the holding potential was − 120 mV. Records were discarded when a leak at the holding potential was > 10% of the peak current at the test potential. Series resistance compensation up to 70% was used to minimise voltage errors and achieve proper voltage-clamp conditions. Experiments were performed at room temperature (20–24 °C). Data were analysed using Prism 8 (GraphPad, CA, USA) and ClampFit 10.5 software (Molecular Devices Inc., Sunnyvale, CA). Before analysis, whole-cell current traces were corrected for ohmic leakage and digitally filtered with a three-point boxcar smoothing filter. For hKCa3.1, hTRPA1 and hTRPV1, the reversal potential for K^+ was determined and only those currents were analysed for which the reversal potential fell into the range of the theoretical reversal potential ± 5 mV (− 86.5 ± 5 mV for KCa3.1, and 0 ± 5 mV for hTRPA1 and hTRPV1).

hKV1.1 [1] = format: cell-based, human
Protocol: as §1, §2, §3

hKV1.3 [2] = format: cell-based, human
Protocol: as §4, with “Phytohemagglutinin A (PHA, Sigma-Aldrich Hungary, Budapest, Hungary) was added to the medium at 10 μg/mL to amplify the KV1.3 expression. Cells were washed gently twice with 2 mL of ECS for the patch-clamp experiments.” left out
as §3

mKCa1.1 channel [3] = format: cell-based
Protocol: as §1, §2, §3

hKV1.1 [4] = conditions: read-out: Kd (positive control concentration equivalent to Kd); KV1.1; no reference given; cited from earlier work
Protocol: (§5) Voltage protocols: For measurement of hKV1.1–1.3 and hKV10.1, currents, voltage steps to + 50 mV, were applied from a holding potential of − 120 mV every 15 or 30 s and the peak current was measured. Channels were activated by a series of depolarisation pulses to + 50 mV from a holding potential of − 120 mV. For KV1.1, 50-ms-long activating stimuli were used every 15 s. Due to the highly variable activation kinetics of KV1.2 [145] 200-ms-long pulses were applied every 15 s to maximise the open probability of the channel.

hKV1.3 [5] = conditions: read-out: Kd (positive control concentration equivalent to Kd); KV1.3; no reference given; cited from earlier work
Protocol: as §5

mKCa1.1 channel [6] = conditions: read-out: Kd (positive control concentration equivalent to Kd); KCa1.1; no reference given; cited from earlier work
Protocol: as §5

T1 sequence (P16389 whole entry): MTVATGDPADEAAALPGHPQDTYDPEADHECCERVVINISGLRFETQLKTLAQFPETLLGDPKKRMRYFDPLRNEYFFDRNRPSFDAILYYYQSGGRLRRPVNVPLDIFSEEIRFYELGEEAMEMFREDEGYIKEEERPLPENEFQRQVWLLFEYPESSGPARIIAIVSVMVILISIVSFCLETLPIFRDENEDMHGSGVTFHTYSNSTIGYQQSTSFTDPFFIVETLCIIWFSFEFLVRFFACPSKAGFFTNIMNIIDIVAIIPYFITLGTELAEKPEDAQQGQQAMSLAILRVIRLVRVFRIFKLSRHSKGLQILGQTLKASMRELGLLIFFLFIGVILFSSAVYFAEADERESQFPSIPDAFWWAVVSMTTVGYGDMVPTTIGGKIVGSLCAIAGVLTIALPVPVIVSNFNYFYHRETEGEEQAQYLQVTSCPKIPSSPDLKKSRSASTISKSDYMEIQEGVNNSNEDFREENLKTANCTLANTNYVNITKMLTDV

Compound: COc1ccc(CCN2CCC(Nc3nc4ccccc4n3Cc3ccc(F)cc3)CC2)cc1 [Astemizole, astemizole, reference compound]
- reduction in current amplitude, positive control (hKV10.1): ~50%

Compound: charybdotoxin [ChTx, reference compound]
- reduction in current amplitude, positive control (hKV1.2): ~50%

Compound: CC[N+](CC)(CC)CC [TEA+, tetraethylammonium, reference compound]
- reduction in current amplitude, positive control (hKV1.1 [1]): ~50%
- reduction in current amplitude, positive control (hKV1.3 [2]): ~50%
- reduction in current amplitude, positive control (mKCa1.1 channel [3]): ~50%
- Kd (hKV1.1 [4]): 0.3 mM
- Kd (hKV1.3 [5]): 10 mM
- Kd (mKCa1.1 channel [6]): 10 mM
